Common to all, as to assay type: in vivo
Assay [1] has as its system Phytophthora. Nature of the assay: Action against Phytophthora on tomato plants (residual-protective / systemic). Conditions: untreated plants showed pathogen attack of 80% to 100%, read-out: inhibition of fungal infestations. The procedure: Action Against Phytophthora on Tomato Plants
(§1) a) Residual-protective Action
After a cultivation period of 3 weeks, tomato plants are sprayed with a spray mixture (0.02% active ingredient) prepared from a wettable powder formulation of the test compound. After 48 hours, the treated plants are infected with a sporangia suspension of the fungus. Fungus infestation is evaluated after incubation of the infected plants for 5 days at 90-100% relative humidity and +20° C.
After a cultivation period of 3 weeks, tomato plants are watered with a spray mixture (0.02% active ingredient based on the volume of the soil) prepared from a wettable powder formulation of the test compound. […] After 96 hours, the treated plants are infected with a sporangia suspension of the fungus. Fungus infestation is evaluated after incubation of the infected plants for 4 days at 90-100% relative humidity and +20° C.

The next assay concerns Plasmopara viticola. The assay is described as follows: Action against Plasmopara viticola on vines (residual-protective / residual-curative). Conditions: vine seedlings, untreated plants showed pathogen attack of 80% to 100%, read-out: inhibition of fungal infestations. The protocol: Action Against Plasmopara viticola on Vines a) Residual-protective Action
Vine seedlings are sprayed at the 4- to 5-leaf stage with a spray mixture (0.02% active ingredient) prepared from a wettable powder formulation of the test compound. After 24 hours, the treated plants are infected with a sporangia suspension of the fungus. Fungus infestation is evaluated after incubation for 6 days at 95-100% relative humidity and +20° C. […]
b) Residual-curative Action
Vine seedlings are infected at the 4- to 5-leaf stage with a sporangia suspension of the fungus. After incubation for 24 hours in a humidity chamber at 95-100% relative humidity and +20° C., the infected plants are dried and sprayed with a spray mixture (0.02% active ingredient) prepared from a wettable powder formulation of the test compound. After the spray coating has dried, the treated plants are placed in the humidity chamber again. Fungus infestation is evaluated 6 days after infection.

In assay [2] the test system is Phytophthora. Nature of the assay: Action against Phytophthora on potato plants (residual-protective / systemic). Conditions: potato plants (Bintje variety), untreated plants showed pathogen attack of 80% to 100%, read-out: inhibition of fungal infestations. The protocol:
Action Against Phytophthora on Potato Plants
as §1
2-3 week old potato plants (Bintje variety) are sprayed with a spray mixture (0.02% active ingredient) prepared from a wettable powder formulation of the test compound. After 48 hours, the treated plants are infected with a sporangia suspension of the fungus. Fungus infestation is evaluated after incubation of the infected plants for 4 days at 90-100% relative humidity and +20° C.
2-3 week old potato plants (Bintje variety) are watered with a spray mixture (0.02% active ingredient based on the volume of the soil) prepared from a wettable powder formulation of the test compound. […] After 48 hours, the treated plants are infected with a sporangia suspension of the fungus. Fungus infestation is evaluated after incubation of the infected plants for 4 days at 90-100% relative humidity and +20° C.

Molecules are shown by their SMILES.

This is an account of results in patent US20040127739A1, “Novel n-p-propargyloxyphenethyl-thioacetic acid amides” (priority 2001, published 2004).

For orientation: inhibition means the percentage by which the read-out fell short of the control. As for `C#CCOc1ccc(CCNC(=S)C(OCC#C)c2ccc(Cl)cc2)cc1OC` (stereo not shown) [Compound A1.01, 2-(4-Chloro-phenyl)-N-[2-(3-methoxy-4-prop-2-ynyloxy-phenyl)-ethyl]-2-(prop-2-ynyloxy)-thioacetamide], the inhibition at 200 ppm in the assay with Phytophthora [1], in the assay with Plasmopara viticola and in the assay on Phytophthora [2] was 80 to 100% each time.
On to `C#CCOc1ccc(CCNC(=S)C(OCC#C)c2ccc(Br)cc2)cc1OC` (stereo not shown) [Compound A1.02, 2-(4-bromo-phenyl)-N-[2-(3-methoxy-4-prop-2-ynyloxy-phenyl)-ethyl]-2-(prop-2-ynyloxy)-thioacetamide], for which the inhibition at 200 ppm in the assay on Phytophthora [1], with Plasmopara viticola and in the assay with Phytophthora [2] was 80 to 100% throughout.
Consider `C#CCOc1ccc(CCNC(=S)C(OC(C)=O)c2ccc(Cl)cc2)cc1OC` (stereo not shown) [Compound A1.03, 2-acetoxy-2-(4-chloro-phenyl)-N-[2-(3-methoxy-4-prop-2-ynyloxy-phenyl)-ethyl]-thioacetamide], for which the inhibition at 200 ppm in the assay on Phytophthora [1], in the assay with Plasmopara viticola and with Phytophthora [2] was 80 to 100% each time.
For `C#CCOc1ccc(CCNC(=S)C(OC(C)=O)c2ccc(Br)cc2)cc1OC` (stereo not shown) [Compound A1.04, 2-acetoxy-2-(4-bromo-phenyl)-N-[2-(3-methoxy-4-prop-2-ynyloxy-phenyl)-ethyl]-thioacetamide], in the assay with Phytophthora [2], the inhibition at 200 ppm is 80 to 100%.
As to `C#CCOc1ccc(CCNC(=S)C(O)c2ccc(Cl)cc2)cc1OC` (stereo not shown) [Compound A2.01, 2-(4-Chloro-phenyl)-2-hydroxy-N-[2-(3-methoxy-4-prop-2-ynyloxy-phenyl)-ethyl]-thioacetamide], the inhibition at 200 ppm with Phytophthora [1], with Plasmopara viticola and in the assay on Phytophthora [2] was 80 to 100% throughout.
For the compound `C#CCOc1ccc(CCNC(=S)C(O)c2ccc(Br)cc2)cc1OC` (stereo not shown) [Compound A2.02, 2-(4-bromo-phenyl)-2-hydroxy-N-[2-(3-methoxy-4-prop-2-ynyloxy-phenyl)-ethyl]-thioacetamide], the inhibition at 200 ppm in the assay on Phytophthora [1], with Plasmopara viticola and with Phytophthora [2] was 80 to 100% in each case.
